Values after ≈ are worked out from the molar mass of the structure shown. Active and inactive are the calls of the source. The calls are words filed in the database; no cut-off is given here.
Assays:
Staphylococcus aureus [1] = assay: (§1) In vivo antibacterial activity against methicillin-resistant Staphylococcus aureus KCCM 40511 ATCC 33593 infected in soft-skin tissue BALB/c mouse infection model assessed as downregulation of IL-6 levels in wound area treated as ointment administered twice at 6 and 12 hrs and measured after 24 hrs by ELISA assay; assay type: functional, organism-based
Staphylococcus aureus [2] = assay: as §1, with “IL-1beta” for “IL-6”; assay type: functional, organism-based
Staphylococcus aureus [3] = assay: Antibacterial activity against Staphylococcus aureus ATCC 4330 assessed as inhibition of bacterial growth measured after 16 to 24 hrs by CLSI based broth dilution method; assay type: functional; conditions: time 16-24 hrs
Clostridioides difficile [4] = assay: Antibacterial activity against Clostridioides difficile ATCC 43255 assessed as inhibition of bacterial growth measured after 24 hrs by CLSI based broth dilution method; assay type: functional
[5] = Aqueous kinetic solubility of the compound at pH 7.4 incubated for 2 hrs by UPLC-MS analysis; assay type: physicochemical; conditions: read-out: Kinetic_solubility
[6] = Effective permeability of the compound at pH 7.4 at 25 uM incubated for 5 hrs by skin PAMPA analysis; assay type: ADME; conditions: pH 7.4, 5 h
[7] = Effective permeability of the compound at pH 5.5 at 25 uM incubated for 5 hrs by skin PAMPA analysis; assay type: ADME; conditions: pH 5.5, 5 h
Staphylococcus aureus [8] = assay: Antibacterial activity against methicillin-resistant Staphylococcus aureus assessed as inhibition of bacterial growth measured after 16 to 24 hrs by CLSI based broth dilution method; assay type: functional; conditions: time 16-24 hrs
Staphylococcus aureus [9] = assay: Antibacterial activity against clinical isolate methicillin-resistant Staphylococcus aureus assessed as log reduction in CFU/ml at 16 times of MIC measured after 24 hrs by time killing analysis; assay type: functional
Staphylococcus aureus [10] = assay: as §1, with “reduction in total number” for “downregulation”, “bacteria” for “IL-6 levels”, “relative to mupirocin” for “by ELISA assay”; assay type: functional
Enterococcus faecalis [11] = assay: Antibacterial activity against Enterococcus faecalis ATCC 29212 assessed as inhibition of bacterial growth measured after 24 hrs by CLSI based broth dilution method; assay type: functional
Enterococcus faecalis [12] = assay: Antibacterial activity against Clinical isolate Enterococcus faecalis assessed as inhibition of bacterial growth measured after 24 hrs by CLSI based broth dilution method; assay type: functional
Enterococcus faecium = assay: Antibacterial activity against Enterococcus faecium ATCC 19434 assessed as inhibition of bacterial growth measured after 24 hrs by CLSI based broth dilution method; assay type: functional
Clostridioides difficile [13] = assay: Antibacterial activity against Clostridioides difficile ribotype 027 infected in colitis induced C57BL/6J mouse assessed as survival rate at 30 mg/kg, po qd pretreated with clindamycin followed by […] infection and compound addition measured on day 5; assay type: functional; conditions: ribotype 027, 120 h, time 5 day
Clostridioides difficile [14] = assay: Antibacterial activity against Clostridioides difficile ribotype 027 infected in colitis induced C57BL/6J mouse assessed as increase in survival rate without recurrence at 30 mg/kg, po qd pretreated with clindamycin followed by […] infection and compound addition measured on day 5; assay type: functional; conditions: time 5.0 day
[15] = (§2) Toxicity in colitis-induced C57BL/6J mouse infected with Clostridioides difficile ribotype 027 assessed as increase in Enterococcus proportion in gut at 30 mg/kg, po qd pretreated with clindamycin followed by infected with […] and measured on day 6 post treatment by RNA sequencing analysis (reference value: 0%); assay type: organism-based; conditions: in vivo, 144 h, time 6 day
[16] = as §2, with “Klebsiella” for “Enterococcus”; assay type: organism-based; conditions: in vivo, 144 h, time 6 day
[17] = as §2, with “Escherichia” for “Enterococcus”; assay type: organism-based; conditions: in vivo, 144 h, time 6 day
[18] = Toxicity in colitis-induced C57BL/6J mouse infected with Clostridioides difficile ribotype 027 assessed as effect on gut micro-biome at 30 mg/kg, po qd pretreated with clindamycin followed by infected with […] and measured on day 6 post treatment by RNA sequencing analysis; assay type: organism-based; conditions: in vivo, 144 h, time 6 day
[19] = Toxicity in colitis-induced C57BL/6J mouse infected with Clostridioides difficile ribotype 027 assessed as effect on Firmicutes proportion in gut at 30 mg/kg, po qd pretreated with clindamycin followed by infected with […] and measured on day 6 post treatment by RNA sequencing analysis; assay type: organism-based; conditions: in vivo, 144 h, time 6 day
[20] = Toxicity in colitis-induced C57BL/6J mouse infected with Clostridioides difficile ribotype 027 assessed as effect on Acinetobacter proportion in gut at 30 mg/kg, po qd pretreated with clindamycin followed by infected with […] and measured on day 6 post treatment by RNA sequencing analysis; assay type: organism-based; conditions: in vivo, 144 h, time 6 day
[21] = Genotoxicity in Salmonella typhimurium TA98 incubated for 90 min by Ames test; assay type: toxicity; conditions: salmonella enterica subsp. enterica serovar typhimurium, 1.5 h
[22] = Genotoxicity in Salmonella typhimurium TA100 incubated for 90 min by Ames test; assay type: toxicity; conditions: salmonella enterica subsp. enterica serovar typhimurium, 1.5 h
[23] = Genotoxicity in Salmonella typhimurium TA98 incubated for 90 min in presence of S9 fraction by Ames test; assay type: toxicity, subcellular; conditions: salmonella enterica subsp. enterica serovar typhimurium, s9, 1.5 h
[24] = Genotoxicity in Salmonella typhimurium TA100 incubated for 90 min in presence of S9 fraction by Ames test; assay type: toxicity, subcellular; conditions: salmonella enterica subsp. enterica serovar typhimurium, s9, 1.5 h
[25] = target: Voltage-gated inwardly rectifying potassium channel KCNH2 (Homo sapiens, UniProt Q12809); assay: Inhibition of hERG expressed in HEK293 cells at 10 uM incubated for 5 mins by whole cell patch clamp assay; assay type: toxicity, cell-based; conditions: hek293, 5 min
Chain of Voltage-gated inwardly rectifying potassium channel KCNH2 (Q12809 whole entry): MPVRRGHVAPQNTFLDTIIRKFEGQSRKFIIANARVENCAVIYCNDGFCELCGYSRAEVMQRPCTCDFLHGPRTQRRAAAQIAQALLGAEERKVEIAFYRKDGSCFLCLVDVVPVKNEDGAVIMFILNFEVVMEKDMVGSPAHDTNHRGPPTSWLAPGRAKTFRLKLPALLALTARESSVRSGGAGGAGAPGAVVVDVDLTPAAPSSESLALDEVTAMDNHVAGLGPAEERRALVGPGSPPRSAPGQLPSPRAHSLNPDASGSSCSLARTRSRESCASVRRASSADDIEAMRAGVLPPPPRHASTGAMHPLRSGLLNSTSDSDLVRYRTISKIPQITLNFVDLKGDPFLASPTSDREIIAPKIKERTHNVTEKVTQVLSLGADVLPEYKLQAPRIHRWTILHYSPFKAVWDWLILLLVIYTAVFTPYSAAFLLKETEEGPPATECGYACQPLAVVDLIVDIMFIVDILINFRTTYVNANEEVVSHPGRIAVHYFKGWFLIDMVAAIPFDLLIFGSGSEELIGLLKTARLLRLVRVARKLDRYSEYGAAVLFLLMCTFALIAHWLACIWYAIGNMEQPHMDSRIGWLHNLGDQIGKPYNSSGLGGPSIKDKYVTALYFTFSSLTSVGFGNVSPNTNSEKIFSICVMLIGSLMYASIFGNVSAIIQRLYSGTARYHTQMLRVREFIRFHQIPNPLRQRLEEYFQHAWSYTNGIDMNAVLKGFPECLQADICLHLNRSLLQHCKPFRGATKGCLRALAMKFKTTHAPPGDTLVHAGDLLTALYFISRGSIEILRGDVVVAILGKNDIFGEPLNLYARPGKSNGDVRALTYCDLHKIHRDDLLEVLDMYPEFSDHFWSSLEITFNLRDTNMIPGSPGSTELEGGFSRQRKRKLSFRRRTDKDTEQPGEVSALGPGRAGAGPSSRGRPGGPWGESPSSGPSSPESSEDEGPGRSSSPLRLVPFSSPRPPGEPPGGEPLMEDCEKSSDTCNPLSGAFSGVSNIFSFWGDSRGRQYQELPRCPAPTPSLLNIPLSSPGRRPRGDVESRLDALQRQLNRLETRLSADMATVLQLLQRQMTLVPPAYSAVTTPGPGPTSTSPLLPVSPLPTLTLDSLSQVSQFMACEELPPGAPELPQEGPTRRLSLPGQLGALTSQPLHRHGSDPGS

[26] = as §2, with “in Klebsiella” for “in Enterococcus”, “day 20” for “day 6”; assay type: organism-based; conditions: in vivo, 480 h, time 20 day
[27] = as §2, with “day 20” for “day 6”; assay type: organism-based; conditions: in vivo, 480 h, time 20 day
[28] = as §2, with “in Escherichia” for “in Enterococcus”, “day 20” for “day 6”; assay type: organism-based; conditions: in vivo, 480 h, time 20 day
Clostridioides difficile [29] = assay: Antibacterial activity against Clostridioides difficile RT001/ST3/A+B+ assessed as inhibition of bacterial growth measured after 24 hrs by CLSI based broth dilution method; assay type: functional
Clostridioides difficile [30] = assay: Antibacterial activity against Clostridioides difficile RT002/ST8/A+B+ assessed as inhibition of bacterial growth measured after 24 hrs by CLSI based broth dilution method; assay type: functional
Clostridioides difficile [31] = assay: Antibacterial activity against Clostridioides difficile RT012/ST54/A+B+ assessed as inhibition of bacterial growth measured after 24 hrs by CLSI based broth dilution method; assay type: functional
Clostridioides difficile [32] = assay: Antibacterial activity against Clostridioides difficile RT014/ST14/A+B+ assessed as inhibition of bacterial growth measured after 24 hrs by CLSI based broth dilution method; assay type: functional
Clostridioides difficile [33] = assay: Antibacterial activity against Clostridioides difficile RT015/ST35/A+B+ assessed as inhibition of bacterial growth measured after 24 hrs by CLSI based broth dilution method; assay type: functional
Clostridioides difficile [34] = assay: Antibacterial activity against Clostridioides difficile RT018/ST17/A+B+ assessed as inhibition of bacterial growth measured after 24 hrs by CLSI based broth dilution method; assay type: functional
Clostridioides difficile [35] = assay: Antibacterial activity against Clostridioides difficile RT293/ST129/A+B+ assessed as inhibition of bacterial growth measured after 24 hrs by CLSI based broth dilution method; assay type: functional
Clostridioides difficile [36] = assay: Antibacterial activity against Clostridioides difficile RT027/ST1/A+B+CDT+ assessed as inhibition of bacterial growth measured after 24 hrs by CLSI based broth dilution method; assay type: functional
Clostridioides difficile [37] = assay: Antibacterial activity against Clostridioides difficile NT/ST67/A+B+CDT+ assessed as inhibition of bacterial growth measured after 24 hrs by CLSI based broth dilution method; assay type: functional
Clostridioides difficile [38] = assay: Antibacterial activity against Clostridioides difficile RT130/ST5/A+B+CDT+ assessed as inhibition of bacterial growth measured after 24 hrs by CLSI based broth dilution method; assay type: functional
Clostridioides difficile [39] = assay: Antibacterial activity against Clostridioides difficile NT/ST221/A+B+CDT+ assessed as inhibition of bacterial growth measured after 24 hrs by CLSI based broth dilution method; assay type: functional
Clostridioides difficile [40] = assay: Antibacterial activity against Clostridioides difficile RT017/ST37/A-B+ assessed as inhibition of bacterial growth measured after 24 hrs by CLSI based broth dilution method; assay type: functional
Clostridioides difficile [41] = assay: Antibacterial activity against Clostridioides difficile RT078/ST11/A+B+CDT+ assessed as inhibition of bacterial growth measured after 24 hrs by CLSI based broth dilution method; assay type: functional

For `C/C=C(\NC(=O)c1csc(-c2csc(-c3ccc4c(n3)-c3csc(n3)[C@H]([C@@H](C)O)NC(=O)c3csc(n3)[C@H](C(C)C)NC(=O)c3csc(n3)/C(=C/C)NC(=O)[C@H]([C@@H](C)O)NC(=O)c3csc-4n3)n2)n1)C(=O)NCCN1CCN(C(C)C)CC1` [listing 1 of 2 here], which Activity (Staphylococcus aureus [1]) is on record?
The Activity was “Active”.

And the Activity (Staphylococcus aureus [2])?
The Activity was “Active”.

For `C/C=C(\NC(=O)c1csc(-c2csc(-c3ccc4c(n3)-c3csc(n3)[C@H]([C@@H](C)O)NC(=O)c3csc(n3)[C@H](C(C)C)NC(=O)c3csc(n3)/C(=C/C)NC(=O)[C@H]([C@@H](C)O)NC(=O)c3csc-4n3)n2)n1)C(=O)NCCN1CCN(C(C)C)CC1` [listing 2 of 2 here], which MIC (Staphylococcus aureus [3]) is on record?
The MIC was 0.5 mg/L (≈ 0.403 µM).

And the MIC (Clostridioides difficile [4])?
Its MIC is 0.5 mg/L (≈ 0.403 µM).

What about the solubility kinetic at 2 h [5] of the same compound?
The solubility kinetic at 2 h was 0.15 mg/mL (≈ 121 µM).

What about the Peff [6] of the same compound?
Its Peff is “Impermeable”.

What about the Peff [7] of the same compound?
Its Peff is “Impermeable”.

What about the MIC50 (Staphylococcus aureus [8]) of the same compound?
Its MIC50 is 2 mg/L (≈ 1.61 µM).

What about the MIC90 (Staphylococcus aureus [8]) of the same compound?
The MIC90 was 4 mg/L (≈ 3.22 µM).

And the Activity (Staphylococcus aureus [9])?
The Activity was “>=3 log10CFU/ml”.

What about the “fold change (FC)” value (Staphylococcus aureus [10]) of the same compound?
Its value is 1000.

For `C/C=C(\NC(=O)c1csc(-c2csc(-c3ccc4c(n3)-c3csc(n3)[C@H]([C@@H](C)O)NC(=O)c3csc(n3)[C@H](C(C)C)NC(=O)c3csc(n3)/C(=C/C)NC(=O)[C@H]([C@@H](C)O)NC(=O)c3csc-4n3)n2)n1)C(=O)NCCn1c([N+](=O)[O-])cnc1C`, which MIC (Staphylococcus aureus [3]) is on record?
The MIC was 0.25 mg/L (≈ 0.202 µM).

What about the MIC (Clostridioides difficile [4]) of the same compound?
The MIC was 0.125 mg/L (≈ 0.101 µM).

And the MIC (Enterococcus faecalis [11])?
The MIC was 0.25 mg/L (≈ 0.202 µM).

And the MIC (Enterococcus faecalis [12])?
Its MIC is 0.25 mg/L (≈ 0.202 µM).

What about the MIC (Enterococcus faecium) of the same compound?
The MIC was 0.25 mg/L (≈ 0.202 µM).

And the survival at 30 mg/kg (Clostridioides difficile [13])?
The survival at 30 mg/kg was 80%.

And the Activity (Clostridioides difficile [14])?
Its Activity is “Active”.

What about the Activity [15] of the same compound?
Its Activity is 0.52%.

And the Activity [16]?
Its Activity is 0.94%.

What about the Activity [17] of the same compound?
The Activity was 2.88%.

What about the Activity [18] of the same compound?
Its Activity is “Non-Toxic”.

And the Activity [19]?
The Activity was “Non-Toxic”.

What about the Activity [20] of the same compound?
The Activity was “Non-Toxic”.

What about the Activity [21] of the same compound?
Its Activity is “Non-Toxic”.

What about the Activity [22] of the same compound?
Its Activity is “Non-Toxic”.

And the Activity [23]?
Its Activity is “Non-Toxic”.

And the Activity [24]?
Its Activity is “Non-Toxic”.

And the “inhibition (INH)” value [25]?
The value was “Active”.

And the Activity [26]?
The Activity was 0.15%.

And the Activity [27]?
The Activity was 1.62%.

And the Activity [28]?
The Activity was 0.93%.

What about the MIC (Clostridioides difficile [29]) of the same compound?
Its MIC is 0.125 mg/L (≈ 0.101 µM).

And the MIC (Clostridioides difficile [30])?
Its MIC is 0.125 mg/L (≈ 0.101 µM).

What about the MIC (Clostridioides difficile [31]) of the same compound?
Its MIC is 0.125 mg/L (≈ 0.101 µM).

What about the MIC (Clostridioides difficile [32]) of the same compound?
The MIC was 0.125 mg/L (≈ 0.101 µM).

What about the MIC (Clostridioides difficile [33]) of the same compound?
Its MIC is 0.125 mg/L (≈ 0.101 µM).

And the MIC (Clostridioides difficile [34])?
The MIC was 0.125 mg/L (≈ 0.101 µM).

What about the MIC (Clostridioides difficile [35]) of the same compound?
Its MIC is 0.125 mg/L (≈ 0.101 µM).

And the MIC (Clostridioides difficile [36])?
Its MIC is 0.125 mg/L (≈ 0.101 µM).

What about the MIC (Clostridioides difficile [37]) of the same compound?
Its MIC is 0.125 mg/L (≈ 0.101 µM).

And the MIC (Clostridioides difficile [38])?
Its MIC is 0.125 mg/L (≈ 0.101 µM).

What about the MIC (Clostridioides difficile [39]) of the same compound?
Its MIC is 0.125 mg/L (≈ 0.101 µM).

And the MIC (Clostridioides difficile [40])?
The MIC was 0.125 mg/L (≈ 0.101 µM).

And the MIC (Clostridioides difficile [41])?
Its MIC is 0.125 mg/L (≈ 0.101 µM).

From ChEMBL document CHEMBL5370604, “Identification of Micrococcin P2-Derivatives as Antibiotic Candidates against Two Gram-Positive Pathogens” (J Med Chem, 2023)
